Tested on: highly active NK cells
Experiment: Viable cell count and recovery rate of highly active NK cells after thawing, based on cell number at freezing
Set-up: species or system human
Method: After the thawing, all the dilution and incubation operations were performed on a low-absorption 6-well plate.
The cells of the groups diluted in the media were incubated overnight at 37° C. under 5% CO2, and then the numbers of viable cells were counted. The experimental conditions are summarized below.
The NK cells obtained by the collection method 1 were suspended in PBS, and incubated at room temperature for 1 hour. The NK cells obtained by the collection method 2 were suspended in (1) the KBM501 medium, (2) KBM501 medium containing 30 μM 4-phenylbutyric acid, (3) KBM501 medium containing 30 μM tauroursodeoxycholic acid dihydrate (TUDCA, Tokyo Kasei Kogyo, T1567), and (4) KBM501 medium containing 30 μM 4-phenylbutyric acid and 30 μM TUDCA, and incubated at 37° C. for 2 hours under 5% CO2. […] After 1 hour, the cells were gently suspended, and number of viable cells was counted. After another 5-fold dilution in the KBM501 medium and incubation at 37° C. for 2 hours under 5% CO2, number of viable cells was counted, and the recovery rate based on the number of cells at the time of freezing was calculated.
(§1) After 1 and 3 hours, the cells were gently suspended, and viable cells were counted. In addition, after 1 hour, the cells were diluted 5-fold in the KBM501 medium, and incubated at 37° C. for 2 hours under 5% CO2, and viable cell were counted. Recovery rate of viable cells after the thawing based on the cell number at the time of freezing was calculated using the number of viable cells at each time point.
as §1, with “on the basis of” for “using”, “point after the thawing.” for “point.”

C[C@H](CCC(=O)NCCS(=O)(=O)O)[C@H]1CC[C@H]2[C@@H]3[C@@H](O)C[C@@H]4C[C@H](O)CC[C@]4(C)[C@H]3CC[C@]12C [TUDCA, tauroursodeoxycholic acid dihydrate]
Recovery rate (added before freezing at 800 μM (preferable between 2,400 μM and 267 μM)): higher recovery rate | Recovery rate after the thawing (pretreatment 2 hours with KBM501 medium supplemented with 30 μM additive before freezing, Example 5): improved | Recovery rate after thawing (pretreatment with KBM501 medium supplemented at various concentrations (266 to 2400 μM), Example 7): improved | Recovery rate after the thawing (pretreatment with KBM501 medium supplemented with various concentrations (10 to 810 μM), Example 6): improved
